Source: patent US11932624B2, “MDM2 degraders and uses thereof” (Kymera Therapeutics, Inc., priority 2020, dated 2024)

Test system: RS411 cells
Assay: Cell Viability CTG Assay (CellTiter Glo) in RS411 cells
Type: cell-based
Conditions: Homo sapiens, RS4-11, 24 h, duration 1 day
Procedure, shortened: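 RS411 cells at 1000 cells/well were exposed to compound (top final 10 μM, 3-fold, 11 doses; 0.2% DMSO) at 37 °C, 5% CO2 for 1-4 days. Viability was read by CellTiter Glo luminescence after 10 min at RT. IC50 is reported as letter-code bins.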

IC50 [nM] | Compound
> 1000 | CN1[C@@H](CN[C@H]2CC[C@H](C(=O)N3CCC(CCc4ccc5c(c4)n(C)c(=O)n5C4CCC(=O)NC4=O)CC3)CC2)[C@H](c2cccc(Cl)c2F)[C@]2(C(=O)Nc3cc(Cl)ccc32)C12CCCCC2 (some centres unmarked) [I-156]
< 50 | CN(CCCCCc1ccc2c(c1)n(C)c(=O)n2C1CCC(=O)NC1=O)Cc1ccc(NC(=O)[C@@H]2NC3(CCCCC3)[C@@]3(C(=O)Nc4cc(Cl)ccc43)[C@H]2c2cccc(Cl)c2F)c(F)c1 (some centres unmarked) [I-161]
> 1000 | Cn1c(=O)n(C2CCC(=O)NC2=O)c2ccc(CCC3CCN(C(=O)c4coc([C@@H]5NC6(CCCCC6)[C@@]6(C(=O)Nc7cc(Cl)ccc76)[C@H]5c5cccc(Cl)c5F)n4)CC3)cc21 (some centres unmarked) [I-165]
< 50 | COc1cc2c(cc1OC(C)C)C(c1ccc(Cl)cc1)N(c1ccc(N(C)C[C@H]3CC[C@H](N(C)C(=O)CCCCc4ccc5c(c4)n(C)c(=O)n5C4CCC(=O)NC4=O)CC3)cc1)C(=O)C2 (some centres unmarked) [I-168]
> 1000 | Cn1c(=O)n(C2CCC(=O)NC2=O)c2ccc(C#CCCN3CCC(NC(=O)[C@@H]4NC5(CCCCC5)[C@@]5(C(=O)Nc6cc(Cl)ccc65)[C@H]4c4cccc(Cl)c4F)CC3)cc21 (some centres unmarked) [I-169]
> 1000 | Cn1c(=O)n(C2CCC(=O)NC2=O)c2ccc(CCCCCOC3CCN(C(=O)c4coc([C@@H]5NC6(CCCCC6)[C@@]6(C(=O)Nc7cc(Cl)ccc76)[C@H]5c5cccc(Cl)c5F)n4)CC3)cc21 (some centres unmarked) [I-172]
< 50 | Cn1c(=O)n(C2CCC(=O)NC2=O)c2ccc(C3CCN(C(=O)[C@H]4CC[C@H](NC(=O)[C@@H]5NC6(CCCCC6)[C@@]6(C(=O)Nc7cc(Cl)ccc76)[C@H]5c5cccc(Cl)c5F)CC4)CC3)cc21 (some centres unmarked) [I-174]
> 1000 | COc1cc2c(cc1OC(C)C)C(c1ccc(Cl)cc1)N(c1ccc(N(C)C[C@H]3CC[C@H](N(C)CCOCCOCC(=O)N[C@H](C(=O)N4C[C@H](O)C[C@H]4C(=O)NCc4ccc(-c5scnc5C)cc4)C(C)(C)C)CC3)cc1)C(=O)C2 (some centres unmarked) [I-175]
< 50 | Cn1c(=O)n(C2CCC(=O)NC2=O)c2ccc(C3CCN(C(=O)c4ccc(NC(=O)[C@@H]5NC6(CCCCC6)[C@@]6(C(=O)Nc7cc(Cl)ccc76)[C@H]5c5cccc(Cl)c5F)cc4)CC3)cc21 (some centres unmarked) [I-176]
< 50 | COc1cc2c(cc1OC(C)C)[C@H](c1ccc(Cl)cc1)N(c1ccc(N(C)CC3CCN(C(=O)CCCCCc4ccc5c(c4)n(C)c(=O)n5C4CCC(=O)NC4=O)CC3)cc1)C(=O)C2 (some centres unmarked) [I-179]
> 1000 | COc1cc2c(cc1OC(C)C)[C@H](c1ccc(Cl)cc1)N(c1ccc(N(C)CC3CCN(C(=O)Cc4ccc5c(c4)n(C)c(=O)n5C4CCC(=O)NC4=O)CC3)cc1)C(=O)C2 (some centres unmarked) [I-181]
< 50 | COc1cc2c(cc1OC(C)C)[C@H](c1ccc(Cl)cc1)N(c1ccc(N(C)CC3CCN(C(=O)CCCc4ccc5c(c4)n(C)c(=O)n5C4CCC(=O)NC4=O)CC3)cc1)C(=O)C2 (some centres unmarked) [I-182]
< 50 | Cn1c(=O)n(C2CCC(=O)NC2=O)c2ccc(CCCCCN3CCc4cc(NC(=O)[C@@H]5NC6(CCCCC6)[C@@]6(C(=O)Nc7cc(Cl)ccc76)[C@H]5c5cccc(Cl)c5F)ccc4C3)cc21 (some centres unmarked) [I-189]

Continued, compound first:

Compound | IC50 [nM]
O=C1CCN(c2cncc3c(C#CC4CCN(C[C@H]5CC[C@H](NC(=O)[C@@H]6NC7(CCCCC7)[C@@]7(C(=O)Nc8cc(Cl)ccc87)[C@H]6c6cccc(Cl)c6F)CC5)CC4)cccc23)C(=O)N1 [I-146] | 100 to 500
Cn1c(=O)n(C2CCC(=O)NC2=O)c2ccc(CCCN3CCN(C[C@H]4CC[C@H](NC(=O)[C@@H]5NC6(CCC(C)(C)CC6)[C@@]6(C(=O)Nc7cc(Cl)ccc76)[C@H]5c5ccnc(Cl)c5F)CC4)CC3)cc21 (some centres unmarked) [I-147] | < 50
Cn1c(=O)n(C2CCC(=O)NC2=O)c2cccc(C#CC3CCN(C[C@H]4CC[C@H](NC(=O)[C@@H]5NC6(CCC(C)(C)CC6)[C@@]6(C(=O)Nc7cc(Cl)ccc76)[C@H]5c5ccnc(Cl)c5F)CC4)CC3)c21 (some centres unmarked) [I-148] | < 50
Cn1c(=O)n(C2CCC(=O)NC2=O)c2ccc(C#CC3CCN(C[C@H]4CC[C@H](NC(=O)[C@@H]5NC6(CCC(C)(C)CC6)[C@@]6(C(=O)Nc7cc(Cl)ccc76)[C@H]5c5ccnc(Cl)c5F)CC4)CC3)cc21 (some centres unmarked) [I-149] | < 50
O=C1CCN(c2cnc3c(C#CC4CCN(C[C@H]5CC[C@H](NC(=O)[C@@H]6NC7(CCCCC7)[C@@]7(C(=O)Nc8cc(Cl)ccc87)[C@H]6c6cccc(Cl)c6F)CC5)CC4)cccn23)C(=O)N1 [I-150] | < 50
Cn1c(=O)n(C2CCC(=O)NC2=O)c2ccc(CCCCCNC(=O)[C@H]3CC[C@H](NC(=O)[C@@H]4NC5(CCC(C)(C)CC5)[C@@]5(C(=O)Nc6cc(Cl)ccc65)[C@H]4c4ccnc(Cl)c4F)CC3)cc21 (some centres unmarked) [I-151] | 100 to 500
Cn1c(=O)n(C2CCC(=O)NC2=O)c2ccc(C(=O)CC3CCN(C[C@H]4CC[C@H](NC(=O)[C@@H]5NC6(CCOCC6)[C@@]6(C(=O)Nc7cc(Cl)ccc76)[C@H]5c5cccc(Cl)c5F)CC4)CC3)cc21 (some centres unmarked) [I-152] | 500 to 1000
Cn1c(=O)n(C2CCC(=O)NC2=O)c2ccc(C#CC3CCN(C[C@H]4CC[C@H](NC(=O)[C@@H]5NC6(CCOCC6)[C@@]6(C(=O)Nc7cc(Cl)ccc76)[C@H]5c5cccc(Cl)c5F)CC4)CC3)cc21 (some centres unmarked) [I-153] | < 50
Cn1c(=O)n(C2CCC(=O)NC2=O)c2ccc(CCN3CC4(CCN(C[C@H]5CC[C@H](NC(=O)[C@@H]6NC7(CCCCC7)[C@@]7(C(=O)Nc8cc(Cl)ccc87)[C@H]6c6cccc(Cl)c6F)CC5)CC4)C3)cc21 (some centres unmarked) [I-154] | < 50
CC1(C)CCC2(CC1)N[C@@H](C(=O)N[C@H]1CC[C@H](CN3CCC(C#Cc4cccn5c(N6CCC(=O)NC6=O)cnc45)CC3)CC1)[C@H](c1ccnc(Cl)c1F)[C@]21C(=O)Nc2cc(Cl)ccc21 [I-155] | < 50
Cn1c(=O)n(C2CCC(=O)NC2=O)c2ccc(CCCCCNC(=O)[C@@H]3CCC(NC(=O)[C@@H]4NC5(CCC(C)(C)CC5)[C@@]5(C(=O)Nc6cc(Cl)ccc65)[C@H]4c4ccnc(Cl)c4F)CO3)cc21 (some centres unmarked) [I-157] | < 50
CN1[C@@H](C(=O)N[C@H]2CC[C@H](CN3CCC4(CC3)CN(CCc3ccc5c(c3)n(C)c(=O)n5C3CCC(=O)NC3=O)C4)CC2)[C@H](c2cccc(Cl)c2F)[C@]2(C(=O)Nc3cc(Cl)ccc32)C12CCCCC2 (some centres unmarked) [I-158] | < 50
Cn1c(=O)n(C2CCC(=O)NC2=O)c2cccc(CCN3CC4(CCN(C[C@H]5CC[C@H](NC(=O)[C@@H]6NC7(CCCCC7)[C@@]7(C(=O)Nc8cc(Cl)ccc87)[C@H]6c6cccc(Cl)c6F)CC5)CC4)C3)c21 (some centres unmarked) [I-159] | < 50
Cn1c(=O)n(C2CCC(=O)NC2=O)c2ccc(CCCCCNC(=O)c3ccc(NC(=O)[C@@H]4NC5(CCCCC5)[C@@]5(C(=O)Nc6cc(Cl)ccc65)[C@H]4c4cccc(Cl)c4F)c4c3OCCO4)cc21 (some centres unmarked) [I-163] | < 50
CC1(C)CCC2(CC1)N[C@@H](C(=O)N[C@H]1CC[C@H](CN3CCC(C#Cc4ccn5c(N6CCC(=O)NC6=O)cnc5c4)CC3)CC1)[C@H](c1ccnc(Cl)c1F)[C@]21C(=O)Nc2cc(Cl)ccc21 [I-164] | < 50
CC(C)[C@@H](CS(=O)(=O)C(C)C)N1C(=O)[C@@](C)(CC(=O)N[C@H]2CC[C@H](CN3CCC(C#Cc4ccn5c(N6CCC(=O)NC6=O)cnc5c4)CC3)CC2)C[C@H](c2cccc(Cl)c2)[C@H]1c1ccc(Cl)cc1 [I-166] | 500 to 1000
CC(C)(C)C[C@@H]1N[C@@H](C(=O)N[C@H]2CC[C@H](CN3CCC(C#Cc4cccn5c(N6CCC(=O)NC6=O)cnc45)CC3)CC2)[C@H](c2cccc(Cl)c2F)[C@@]1(C#N)c1ccc(Cl)cc1F [I-167] | > 1000
CC(C)[C@@H](CS(=O)(=O)C(C)C)N1C(=O)[C@@](C)(CC(=O)N[C@H]2CC[C@H](CN3CCC(C#Cc4cccn5c(N6CCC(=O)NC6=O)cnc45)CC3)CC2)C[C@H](c2cccc(Cl)c2)[C@H]1c1ccc(Cl)cc1 [I-170] | 100 to 500
Cn1c(=O)n(C2CCC(=O)NC2=O)c2ccc(CC[C@H]3CC[C@H](N4CCC(NC(=O)[C@@H]5NC6(CCCCC6)[C@@]6(C(=O)Nc7cc(Cl)ccc76)[C@H]5c5cccc(Cl)c5F)CC4)CC3)cc21 (some centres unmarked) [I-171] | < 50
Cn1c(=O)n(C2CCC(=O)NC2=O)c2ccc(C3CCN(C(=O)[C@H]4CC[C@H](NC(=O)[C@@H]5NC6(CCC(C)(C)CC6)[C@@]6(C(=O)Nc7cc(Cl)ccc76)[C@H]5c5ccnc(Cl)c5F)CC4)CC3)cc21 (some centres unmarked) [I-177] | < 50
Cn1c(=O)n(C2CCC(=O)NC2=O)c2ccc(N3CCN(C(=O)[C@H]4CC[C@H](NC(=O)[C@@H]5NC6(CCCCC6)[C@@]6(C(=O)Nc7cc(Cl)ccc76)[C@H]5c5cccc(Cl)c5F)CC4)CC3)cc21 (some centres unmarked) [I-178] | < 50
Cn1c(=O)n(C2CCC(=O)NC2=O)c2ccc(CCN3CCN(C(=O)[C@H]4CC[C@H](NC(=O)[C@@H]5NC6(CCCCC6)[C@@]6(C(=O)Nc7cc(Cl)ccc76)[C@H]5c5cccc(Cl)c5F)CC4)CC3)cc21 (some centres unmarked) [I-180] | < 50
Cn1c(=O)n(C2CCC(=O)NC2=O)c2ccc(CN3CCN(C(=O)[C@H]4CC[C@H](NC(=O)C5NC6(CCCCC6)[C@@]6(C(=O)Nc7cc(Cl)ccc76)[C@H]5c5cccc(Cl)c5F)CC4)CC3)cc21 (some centres unmarked) [I-183] | < 50
O=C1CCN(c2cnc3cc(NCCCCCNC[C@H]4CC[C@H](NC(=O)[C@@H]5NC6(CCCCC6)[C@@]6(C(=O)Nc7cc(Cl)ccc76)[C@H]5c5cccc(Cl)c5F)CC4)ccn23)C(=O)N1 [I-184] | 50 to 100
Cc1ccc2c(c1C1CCN(C[C@H]3CC[C@H](NC(=O)[C@@H]4NC5(CCCCC5)[C@@]5(C(=O)Nc6cc(Cl)ccc65)[C@H]4c4cccc(Cl)c4F)CC3)CC1)n(C)c(=O)n2C1CCC(=O)NC1=O (some centres unmarked) [I-185] | < 50
Cn1c(=O)n(C2CCC(=O)NC2=O)c2ccc(C3CCN(C[C@H]4CC[C@H](NC(=O)[C@@H]5NC6(CCCCC6)[C@@]6(C(=O)Nc7cc(Cl)ccc76)[C@H]5c5cccc(Cl)c5F)CC4)CC3)cc21 (some centres unmarked) [I-186] | < 50
COc1ccc2c(c1C1CCN(C[C@H]3CC[C@H](NC(=O)[C@@H]4NC5(CCCCC5)[C@@]5(C(=O)Nc6cc(Cl)ccc65)[C@H]4c4cccc(Cl)c4F)CC3)CC1)n(C)c(=O)n2C1CCC(=O)NC1=O (some centres unmarked) [I-187] | < 50
Cc1ncsc1-c1ccc(CNC(=O)[C@@H]2C[C@@H](O)CN2C(=O)[C@@H](NC(=O)COCCOCC2CCN(C[C@H]3CC[C@H](NC(=O)[C@@H]4NC5(CCCCC5)[C@@]5(C(=O)Nc6cc(Cl)ccc65)[C@H]4c4cccc(Cl)c4F)CC3)CC2)C(C)(C)C)cc1 [I-188] | > 1000
